# According to publication PMC10931740, “Uncovering the Role of Hydroxycinnamoyl Transferase in Boosting Chlorogenic Acid Accumulation in Carthamus tinctorius Cells under Methyl Jasmonate Elicitation” (International Journal of Molecular Sciences, 2024):
# System: T1, CtHCT (CtNewGene_3476), recombinant hydroxycinnamoyl transferase
# T1 construct: gene HCT; HXXXD 156-160, DFGWG 379-383
# Assay: HPLC product assay, Lineweaver-Burk
# Type: biochemical, Carthamus tinctorius
# Conditions: pH 7.5, 35 °C, 1 mM Cu2+
# From the text: HPLC product assay, Lineweaver-Burk on CtHCT (CtNewGene_3476), recombinant hydroxycinnamoyl transferase
SMILES,Km (saturating quinic acid),Km (saturating p-coumaroyl-CoA)
"CC(C)(COP(=O)(O)OP(=O)(O)OC[C@H]1O[C@@H](n2cnc3c(N)ncnc32)[C@H](O)[C@@H]1OP(=O)(O)O)[C@@H](O)C(=O)NCCC(=O)NCCSC(=O)/C=C/c1ccc(O)c(O)c1 [C-COA, Caffeoyl-CoA]",32.6 µM,
"O=C(O)[C@]1(O)C[C@@H](O)[C@@H](O)[C@H](O)C1 [QA, Quinic acid]",,7.11 µM
"O=C(O)C1=C[C@@H](O)[C@@H](O)[C@H](O)C1 [SkA, Shikimic acid]",,18.4 µM
"CC(C)(COP(=O)(O)OP(=O)(O)OC[C@H]1O[C@@H](n2cnc3c(N)ncnc32)[C@H](O)[C@@H]1OP(=O)(O)O)[C@@H](O)C(=O)NCCC(=O)NCCSC(=O)/C=C/c1ccc(O)cc1 [p-CoCOA, p-Coumaroyl-CoA]",9.41 µM,
